Reference: publication PMC10278368 (The Pediatric infectious disease journal, 2011)
Converted amounts (≈) assume the structure as drawn. Structures can show the parent of a compound that is named as a salt. Where two headings read alike, the source gives them in different places. Bridge positions count the residues as written; N and C are the ends. Square brackets hold non-standard residues; d marks the D form. Peptide text beside a SMILES is read from it. * marks the point of attachment. X1 = CC[C@H](C)CCCCC(=O)*; Dab = NCC[C@H](N)C(=O)O

What was measured:
[1] = format: in vivo, human
[2] = system: multidrug resistant Klebsiella pneumoniae; experiment: microbe, parasite or virus in culture
[3] = system: multidrug resistant Klebsiella pneumoniae; details: blood culture isolate of the patient; for MIC: method not stated
[4] = system: multidrug resistant Klebsiella pneumoniae; format: in vivo, human; details: 1.5 mg/kg/dose every 12 hours IV in combination with amikacin once daily; persistently febrile; infant, n = 1
Acinetobacter baumannii = experiment: MIC of the endotracheal aspirate isolate; format: cell-based; details: isolate from endotracheal aspirate of the patient; reported as susceptible

Compound: CC[C@H](C)CCCCC(=O)N[C@@H](CCN)C(=O)N[C@H](C(=O)N[C@@H](CCN)C(=O)N[C@H]1CCNC(=O)[C@H]([C@@H](C)O)NC(=O)[C@H](CCN)NC(=O)[C@H](CCN)NC(=O)[C@H]([C@@H](C)CC)NC(=O)[C@@H](Cc2ccccc2)NC(=O)[C@H](CCN)NC1=O)[C@@H](C)O [Isoleucine Polymyxin B1] (X1-[Dab]T[Dab][Dab][Dab][dF]I[Dab][Dab]T; lactam 4-C)
- clearance ([1]; human, in vivo, iv): 4.02 mL/min

Compound: CC[C@H](C)CCCCC(=O)N[C@@H](CCN)C(=O)N[C@H](C(=O)N[C@@H](CCN)C(=O)N[C@H]1CCNC(=O)[C@H]([C@@H](C)O)NC(=O)[C@H](CCN)NC(=O)[C@H](CCN)NC(=O)[C@H](CC(C)C)NC(=O)[C@@H](Cc2ccccc2)NC(=O)[C@H](CCN)NC1=O)[C@@H](C)O [Polymyxin B1] (X1-[Dab]T[Dab][Dab][Dab][dF]L[Dab][Dab]T; lactam 4-C)
- clearance ([1]; human, in vivo, iv): 5.07 mL/min
- half-life ([1]; human, in vivo, iv): 3.07 h
- elimination half-life (rounded) ([1]; infant, n = 1, IV polymyxin B, steady-state serum, LC-MS): 3.1 h

Compound: NCC[C@H](O)C(=O)N[C@@H]1C[C@H](N)[C@@H](O[C@H]2O[C@H](CN)[C@@H](O)[C@H](O)[C@H]2O)[C@H](O)[C@H]1O[C@H]1O[C@H](CO)[C@@H](O)[C@H](N)[C@H]1O [amikacin]
- MIC [2]: < 2 µg/mL

Compound: C[C@H]1[C@H](NC(=O)/C(=N\OC(C)(C)C(=O)O)c2csc(N)n2)C(=O)N1S(=O)(=O)O [aztreonam]
- MIC [2]: > 64 µg/mL

Compound: CC(C)(O/N=C(\C(=O)N[C@@H]1C(=O)N2C(C(=O)[O-])=C(C[n+]3ccccc3)CS[C@H]12)c1csc(N)n1)C(=O)O [ceftazidime]
- MIC [2]: 16 µg/mL (≈ 29.3 µM)

Compound: CO/N=C(\C(=O)N[C@@H]1C(=O)N2C(C(=O)O)=C(CSc3nc(=O)c(=O)[nH]n3C)CS[C@H]12)c1csc(N)n1 [ceftriaxone]
- MIC [2]: 16 µg/mL (≈ 28.9 µM)

Compound: C[C@@H](O)[C@H]1C(=O)N2C(C(=O)O)=C(S[C@@H]3CN[C@H](C(=O)N(C)C)C3)[C@H](C)[C@H]12 [meropenem]
- MIC ([2]; read-out: MIC by E-test): 32 µg/mL (≈ 83.4 µM)

Compound: CC[C@H](C)CCCCC(=O)N[C@@H](CCN)C(=O)N[C@H](C(=O)N[C@@H](CCN)C(=O)N[C@H]1CCNC(=O)[C@H]([C@@H](C)O)NC(=O)[C@H](CCN)NC(=O)[C@H](CCN)NC(=O)[C@H](CC(C)C)NC(=O)[C@@H](Cc2ccccc2)NC(=O)[C@H](CCN)NC1=O)[C@@H](C)O [polymyxin B, Polymyxin B sulfate] (X1-[Dab]T[Dab][Dab][Dab][dF]L[Dab][Dab]T; lactam 4-C (inferred); N-terminus assumed)
- MIC by E-test ([3]; E-test): 1.5 µg/mL
- days of persistently positive blood cultures under treatment [4]: 3 days

Compound: ampicillin/sulbactam
- MIC [3]: > 32 µg/mL

Compound: piperacillin/tazobactam
- MIC [3]: > 128 µg/mL
- MIC (Acinetobacter baumannii): < 4 µg/mL
